Source: ChEMBL document CHEMBL4840312, “Discovery of memantyl urea derivatives as potent soluble epoxide hydrolase inhibitors against lipopolysaccharide-induced sepsis” (Eur J Med Chem, 2021)

What was measured:
[1] = biological target: T1, Bifunctional epoxide hydrolase 2 (Mus musculus, UniProt P34914)
T1 sequence (P34914 whole entry): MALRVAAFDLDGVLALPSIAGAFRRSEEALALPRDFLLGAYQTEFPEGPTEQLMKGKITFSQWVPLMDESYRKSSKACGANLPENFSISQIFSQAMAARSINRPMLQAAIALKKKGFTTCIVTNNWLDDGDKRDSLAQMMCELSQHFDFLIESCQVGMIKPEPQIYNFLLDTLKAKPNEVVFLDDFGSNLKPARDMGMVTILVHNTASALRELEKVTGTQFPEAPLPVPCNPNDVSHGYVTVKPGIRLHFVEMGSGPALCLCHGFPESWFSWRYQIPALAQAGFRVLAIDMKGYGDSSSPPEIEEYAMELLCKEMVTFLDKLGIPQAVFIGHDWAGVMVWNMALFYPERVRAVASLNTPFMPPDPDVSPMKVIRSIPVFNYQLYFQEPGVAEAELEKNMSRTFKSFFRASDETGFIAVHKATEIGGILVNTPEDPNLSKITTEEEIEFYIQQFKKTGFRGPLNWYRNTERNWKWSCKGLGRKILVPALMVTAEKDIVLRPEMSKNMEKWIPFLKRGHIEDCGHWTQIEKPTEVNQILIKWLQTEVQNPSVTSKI
Description: Inhibition of mouse recombinant sEH using PHOME as substrate measured after 10 mins by fluorescent based assay

[2] = biological target: T2, Bifunctional epoxide hydrolase 2 (Homo sapiens, UniProt P34913)
T2 sequence (P34913 whole entry): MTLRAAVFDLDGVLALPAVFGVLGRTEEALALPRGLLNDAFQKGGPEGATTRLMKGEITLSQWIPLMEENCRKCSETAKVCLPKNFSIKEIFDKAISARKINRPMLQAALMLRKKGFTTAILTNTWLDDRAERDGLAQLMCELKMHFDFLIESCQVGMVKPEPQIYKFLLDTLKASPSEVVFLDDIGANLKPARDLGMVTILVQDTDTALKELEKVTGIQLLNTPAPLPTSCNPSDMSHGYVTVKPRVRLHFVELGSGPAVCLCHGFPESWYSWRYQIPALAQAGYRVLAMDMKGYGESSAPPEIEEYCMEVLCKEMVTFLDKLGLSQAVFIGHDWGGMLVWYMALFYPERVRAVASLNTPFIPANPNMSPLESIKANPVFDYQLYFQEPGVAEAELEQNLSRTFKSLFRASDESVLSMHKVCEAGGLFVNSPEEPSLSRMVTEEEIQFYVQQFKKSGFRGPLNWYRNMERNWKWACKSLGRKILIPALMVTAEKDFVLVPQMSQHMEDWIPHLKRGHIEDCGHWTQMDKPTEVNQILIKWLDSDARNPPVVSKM
Description: Inhibition of human recombinant sEH using PHOME as substrate measured after 10 mins by fluorescent based assay

[3] = Volume of distribution in Sprague-Dawley rat at 3 mg/kg, iv administered as single dose upto 24 hrs by LC-MS analysis; format: ADME, organism-based; details: in vivo
[4] = Clearance in Sprague-Dawley rat at 3 mg/kg, iv administered as single dose upto 24 hrs by LC-MS analysis; format: ADME, organism-based; details: in vivo
[5] = Cmax in Sprague-Dawley rat at 30 mg/kg, po administered as single dose upto 24 hrs by LC-MS analysis; format: ADME, organism-based; parameters: route oral, dose 30 mg/kg, time <=24; details: in vivo
[6] = Microsomal stability in human liver microsomes assessed as substrate remaining in presence of NADPH measured after 5 mins by LC-MS/MS analysis
[7] = AUC (0 to 24 hrs) in Sprague-Dawley rat at 3 mg/kg, iv administered as single dose upto 24 hrs by LC-MS analysis; format: ADME, organism-based; parameters: route intravenous, dose 3 mg/kg, time <=24; details: in vivo
[8] = Microsomal stability in human liver microsomes assessed as substrate remaining in presence of NADPH measured after 10 mins by LC-MS/MS analysis
[9] = Cmax in Sprague-Dawley rat at 3 mg/kg, iv administered as single dose upto 24 hrs by LC-MS analysis; format: ADME, organism-based; parameters: route intravenous, dose 3 mg/kg, time <=24; details: in vivo
[10] = Microsomal stability in human liver microsomes assessed as substrate remaining in presence of NADPH measured after 30 mins by LC-MS/MS analysis; details: 0.5 h
[11] = Microsomal stability in human liver microsomes assessed as substrate remaining in presence of NADPH measured after 20 mins by LC-MS/MS analysis
[12] = AUC (0 to infinity) in Sprague-Dawley rat at 30 mg/kg, po administered as single dose upto 24 hrs by LC-MS analysis; format: ADME, organism-based; parameters: route oral, dose 30 mg/kg, time <=24; details: in vivo
[13] = Clearance in Sprague-Dawley rat at 30 mg/kg, po administered as single dose upto 24 hrs by LC-MS analysis; format: ADME, organism-based; details: in vivo
[14] = Reversible toxicity in ICR mouse assessed as eye secretion at 100 mg/kg, ip administered as single dose observed for 14 days; format: organism-based; details: in vivo, 336 h, time 14 day
[15] = AUC (0 to 24 hrs) in Sprague-Dawley rat at 30 mg/kg, po administered as single dose upto 24 hrs by LC-MS analysis; format: ADME, organism-based; parameters: route oral, dose 30 mg/kg, time <=24; details: in vivo
[16] = Volume of distribution in Sprague-Dawley rat at 30 mg/kg, po administered as single dose upto 24 hrs by LC-MS analysis; format: ADME, organism-based; details: in vivo
[17] = Microsomal stability in human liver microsomes assessed as substrate remaining in presence of NADPH measured after 60 mins by LC-MS/MS analysis; details: 1 h
[18] = Acute toxicity in ICR mouse assessed as body weight at 100 mg/kg, ip administered as single dose observed for 14 days; format: organism-based; details: in vivo, 336 h, time 14 day
[19] = test system: Mus musculus; test: Effect on C57BL/6 mouse model of LPS induced sepsis assessed as survival rate in 72 hrs at 5 mg/kg, ip (reference value: 28.6%); format: functional; details: C57BL/6, ip
[20] = test system: Mus musculus; test: Effect on C57BL/6 mouse model of LPS induced sepsis assessed as survival rate in 24 hrs at 5 mg/kg, ip (reference value: 71.4%); format: functional; details: C57BL/6, ip

Compound | IC50 [1] [nM] | IC50 [2] [nM] | also measured
CC(C)CNC(=O)/C=C/C(=O)NC12CC3CC(C)(CC(C)(C3)C1)C2 | 21100 | 9620 | 
CC12CC3CC(C)(C1)CC(NC(=O)CCC(=O)N1CCCCC1)(C3)C2 | 21700 | 2470 | 
CC(C)CNC(=O)CCCC(=O)NC(C)C12CC3CC(CC(C3)C1)C2 (centres undefined) | 694 | 7320 | 
CC(C)CNC(=O)c1ccc(C(=O)NC23CC4CC(C)(CC(C)(C4)C2)C3)cc1 | 6540 | > 100000 | 
CC(C)CNC(=O)CCCC(=O)NC1C2CC3CC1CC(O)(C3)C2 (centres undefined) | 106 | 41.6 | 
CC12CC3CC(C)(C1)CC(NC(=O)Nc1ccc(C(=O)N4CCCCC4)cc1)(C3)C2 |  |  | Vd [3]: 7.83 L/kg; CLH [4]: 71.7 mL/min/kg; Cmax [5]: 330 nM; residual activity [6]: 58.9%; AUC(0-t) [7]: 1.83 µM·h; residual activity [8]: 43%; Cmax [9]: 3640 nM; residual activity [10]: 17.1%; residual activity [11]: 26.4%; AUC [12]: 1.305 µM·h; CLH [13]: 4496.5 mL/min/kg; Activity [14]: Toxic; AUC(0-t) [15]: 1.3 µM·h; Vd [16]: 1097.8 L/kg; residual activity [17]: 12.4%
O=C(Nc1ccc(C(=O)N2CCCCC2)cc1)NC1C2CC3CC(C2)CC1C3 (centres undefined) | 0.4 | 0.4 | Activity [18]: Non-Toxic
CC(C)CNC(=O)CCC(=O)NC12CC3CC(C)(CC(C)(C3)C1)C2 | 4130 | 18900 | 
CC(C)CNC(=O)c1ccc(NC(=O)NC2C3CC4CC2CC(O)(C4)C3)cc1 (centres undefined) | 2350 | 249 | 
CC(C)CNC(=O)c1ccc(NC(=O)NC2C3CC4CC(C3)CC2C4)cc1 (centres undefined) | 0.4 | 0.9 | Activity [18]: Non-Toxic; Activity [14]: Toxic
CC12CC3CC(C)(C1)CC(NC(=O)CCCC(=O)N1CCCCC1)(C3)C2 | 5840 | 5930 | 
CC12CC3CC(C)(C1)CC(NC(=O)c1ccc(C(=O)NC4CCCCC4)cc1)(C3)C2 | 1020 | 6290 | 
CC(NC(=O)Nc1ccc(C(=O)N2CCCCC2)cc1)C12CC3CC(CC(C3)C1)C2 (centres undefined) | 2.4 | 3.9 | 
CC12CC3CC(C)(C1)CC(NC(=O)/C=C/C(=O)NC1CCCCC1)(C3)C2 | 5520 | 24400 | 
CC(=O)N1CCC(NC(=O)NC23CC4CC(CC(C4)C2)C3)CC1 [AR9281] |  |  | Activity [14]: Toxic
CC12CC3CC(C)(C1)CC(NC(=O)CCC(=O)NC1CCCCC1)(C3)C2 | 180 | 7890 | 
O=C(Nc1ccc(C(=O)N2CCCCC2)cc1)NC12CC3CC(CC(O)(C3)C1)C2 | 88.8 | 120 | 

Compound | IC50 [1] [nM] | IC50 [2] [nM] | also measured
O=C(Nc1ccc(C(=O)NC2CCCCC2)cc1)NC12CC3CC(CC(O)(C3)C1)C2 | 94.2 | 796 | 
O=C(Nc1ccc(C(=O)NC2CCCCC2)cc1)NC1C2CC3CC(C2)CC1C3 (centres undefined) | 0.4 | 1.4 | Activity [14]: Toxic
CC(C)CNC(=O)CCCC(=O)NC12CC3CC(C)(CC(C)(C3)C1)C2 | 225 | 6230 | 
CC(NC(=O)Nc1ccc(C(=O)NC2CCCCC2)cc1)C12CC3CC(CC(C3)C1)C2 (centres undefined) | 13.7 | 217 | 
CC(C)CNC(=O)CCC(=O)NC(C)C12CC3CC(CC(C3)C1)C2 (centres undefined) | 43.5 | 50.8 | 
CC12CC3CC(C)(C1)CC(NC(=O)/C=C\C(=O)N1CCCCC1)(C3)C2 | 81200 | 21500 | 
O=C(Nc1ccc(C(=O)NC2CCCCC2)cc1)NC1C2CC3CC1CC(O)(C3)C2 (centres undefined) | 463 | 493 | 
CC12CC3CC(C)(C1)CC(NC(=O)c1ccc(C(=O)N4CCCCC4)cc1)(C3)C2 | 60700 | 26400 | 
C[C@@H]1C[C@H]2[C@@H]3CCC4=CC(=O)C=C[C@]4(C)[C@@]3(F)[C@@H](O)C[C@]2(C)[C@@]1(O)C(=O)CO [DEXAMETHASONE] |  |  | survival at 5 mg/kg [19]: 100%; survival at 5 mg/kg [20]: 100%
CC12CC3CC(C)(C1)CC(NC(=O)CCCC(=O)NC1CCCCC1)(C3)C2 | 8.3 | 1590 | 
CC(C)CNC(=O)c1ccc(NC(=O)NC23CC4CC(C)(CC(C)(C4)C2)C3)cc1 | 0.4 | 0.7 | Activity [18]: Non-Toxic
CC12CC3CC(C)(C1)CC(NC(=O)Nc1ccc(C(=O)NC4CCCCC4)cc1)(C3)C2 | 0.4 | 2.3 | Activity [18]: Non-Toxic
CC(C)CNC(=O)c1ccc(NC(=O)NC(C)C23CC4CC(CC(C4)C2)C3)cc1 (centres undefined) | 28.8 | 59.8 | 
CC(C)CNC(=O)CCCC(=O)NC1C2CC3CC(C2)CC1C3 (centres undefined) | 2270 | 3580 | 
CC(C)CNC(=O)c1ccc(NC(=O)NC23CC4CC(CC(O)(C4)C2)C3)cc1 | 291 | 949 | 
O=C(Nc1ccc(C(=O)N2CCCCC2)cc1)NC1C2CC3CC1CC(O)(C3)C2 (centres undefined) | 497 | 217 | 
